Here are results for one compound from patent publication US5098933A, “Pharmaceutically useful Michael addition products of unsaturated aldehydes and ketones and ascorbic acid” (Theracel Corporation, priority 1990, dated 1992).

The subject of the assay is immune system. Put plainly: Tests to establish immunomodulatory properties (overall statement). It is filed as in vivo. The settings on record: normal antigen stimulated mice. How it is done: The following tests were conducted on various compounds within the scope of this invention to establish their immunodmodulatory properties. […] Conversely, at higher dosage levels, e.g. about 200 to 600 mg/kg body weight they function as immunoinhibitors.
The tests used to establish immunostimulation were:

`O=C1CCC(C2(O)C(=O)OC3C(O)COC32O)C1` (stereo not shown) [KCPBL]: the “immunostimulatory activity on T-helper (Th) mediated lymphocyte functions” value was “demonstrated an immunostimulatory activity on T-helper (Th) mediated lymphocyte functions”.
